According to patent US7504243B2, “Methods for the production of biliverdin” (The United States of America as represented by the …, priority 2004, dated 2009):

Tested on: CaHMX1 promoter
Assay: Renilla luciferase reporter driven by the CaHMX1 promoter in knock-in strain CAMP Ki-29
Assay type: cell-based, Candida albicans
Conditions: for Luciferase Activity: strain Ki-29, iron-replete medium, 30° C., 15 min, 1 mg/ml protein, mean±S.D. of two experiments, light units per 5×10^7 cells/assay point
Description: and cloning into pCR-BluntII TOPO (Invitrogen). The inserted fragment is then excised with SstI and PstI and cloned into plasmid pCRW3 (Srikantha, T. et al. (1996) “THE SEA PANSY RENILLA RENIFORMIS LUCIFERASE SERVES AS A SENSITIVE BIOLUMINESCENT REPORTER FOR DIFFERENTIAL GENE EXPRESSION IN CANDIDA ALBICANS,” J. Bacteriol. 178:121-129) using similar sites resulting in plasmid pPt14. This plasmid was linearized at the unique KpnI site in the CaHMX1 promoter (see, FIG. 2, Panel D) to enable recombination into the CaHMX1 genomic site in the C. albicans strain Red 3/6 (Srikantha, T. et al. (1996) “THE SEA PANSY RENILLA RENIFORMIS LUCIFERASE SERVES AS A SENSITIVE BIOLUMINESCENT REPORTER FOR DIFFERENTIAL GENE EXPRESSION IN CANDIDA ALBICANS,” J. Bacteriol. 178:121-129). […] This knock-in procedure is desirable because the reporter plasmid pPt14 is not functional when integrated into the Ade2 locus when introduced as an episome. The resulting strain, CAMP Ki-29, is used for all reporter assays discussed herein. The correct insertion sites of the preceding constructs in the genomes of strains CAMP 50 and CAMP Ki-29 are verified by Southern blotting.
Luciferase Assays—Reporter assays use C. albicans cells that are grown at 30° C. in minimal YNB medium with ammonium sulfate and 2% glucose. 5×10^7 cells were harvested, cell extracts were obtained by glass bead lysis (Srikantha, T. et al. (1996) “THE SEA PANSY RENILLA RENIFORMIS LUCIFERASE SERVES AS A SENSITIVE BIOLUMINESCENT REPORTER FOR DIFFERENTIAL GENE EXPRESSION IN CANDIDA ALBICANS,” J. Bacteriol. 178:121-129), and luminescence is determined using coelenterazine as a substrate (Promega). Luciferase activity is defined as the number of light units using 5×10^7 cells/assay point in 200 μl of lysis buffer using a 5-μl volume for light measurement. To assess regulation of the promoter by iron, the ferrous iron chelator ferrozine is added to cell cultures in the presence of FAS to buffer iron concentrations as described (Philpott, C. C. et al. (1998) “CELL-CYCLE ARREST AND INHIBITION OF G1 CYCLIN TRANSLATION BY IRON IN AFT1-1^UP YEAST,” EMBO J. 17, 5026-5036) (see also, Chaney, R. L. (1988) “PLANTS CAN UTILIZE IRON FROM IRON-N,N′-DI-2 HYDROXYBENZOYLETHYLENEDIAMINE-N,N′-DIACETIC ACID, A FERRIC CHELATE WITH 1,000,000 GREATER FORMATION CONSTANT THAN IRON-EDDHA,” J. Plant Nutr. 11, 1033-1050). FAS added to 1 mM ferrozine at 10, 100, and 400 μM represents low, optimal, and high levels of iron, respectively.
To ensure that this induction is specific for Hb, several control proteins are tested for their ability to stimulate luciferase activity in strain Ki-29 (Table 1). […] Therefore, the iron in Hb is not essential for activity, but the native conformation of globin induced by porphyrin binding is required.

Row | Substance | Luciferase Activity | also measured
1 | Apo-transferrin: control protein from Sigma | 64.4 ± 11.8 | 
2 | Casein | 38.6 ± 8.1 | 
3 | CoPPIX-globin: The cobalt analog of Hb; cobalt protoporphyrin IX substituted for the heme in globin | 161.7 ± 24 | 
4 | Fetuin: control protein from Sigma | 59.3 ± 5.9 | 
5 | Holo-transferrin: ferroprotein transferrin, control protein from Sigma | 20.7 ± 0.55 | 
6 | hemin [reference compound] |  | increase in activity over the iron-replete control when hemin is added to Hb combined with ferrozine (24 h, Hb 25 μM + ferrozine 100 μM + hemin 25 μM): 2.5 fold; increase of CaHMX1 promoter activity by hemin after 24 h (CAMP Ki-29 cells, hemin 25 μM, 24 h): about 2 fold; lag time before induction of promoter activity (iron-deficient medium, 25 μM hemin, extended time course): 3 h
